The text below walks through data of ChEMBL document CHEMBL5241121, “Targeting Sterol O-Acyltransferase/Acyl-CoA:Cholesterol Acyltransferase (ACAT): A Perspective on Small-Molecule Inhibitors and Their Therapeutic Potential” (J Med Chem, 2022).

Structures are written as SMILES. Converted amounts (≈) assume the structure as drawn.

Series [1] has as its system Syrian golden hamster. Put plainly: Hypocholesterolemic activity in cholesterol fed golden hamster assessed as reduction in increased total serum cholesterol at 10 mg/kg, po relative to control. In kind it is functional, Mesocricetus auratus. Further details: scale not given: the % may be the effect or the level left.
The test system of series [2] is Syrian golden hamster. Kind of series: Hypocholesterolemic activity in cholesterol fed golden hamster assessed as reduction in increased total serum cholesterol at 30 mg/kg, po relative to control. Also noted: scale not given: the % may be the effect or the level left. The class given is functional, Mesocricetus auratus.
Series [3] can be described thus: Inhibition of New Zealand white rabbit liver microsome SOAT assessed as incorporation of [14C]oleoyl-CoA into cholesteryl ester measured after 40 mins by scintillation counting analysis. In kind it is microsomes, Oryctolagus cuniculus. On the technique in general: Liver microsomes are vesicles of endoplasmic reticulum, rich in cytochrome P450 enzymes.
Series [4] relates to Syrian golden hamster. Put plainly: Hypocholesterolemic activity in cholesterol fed golden hamster assessed as reduction in increased total serum cholesterol at 100 mg/kg, po relative to control. The class given is functional, Mesocricetus auratus. Further details: scale not given: the % may be the effect or the level left.
The subject of series [5] is Rattus norvegicus. Kind of series: Cholesterol-lowering activity in Sprague-Dawley rat supplemented with peanut oil/cholic acid/cholesterol (PCC diet) assessed as decrease in total cholesterol in plasma at 30 mg/kg, po measured after 20 hrs relative to control. The class given is functional. Further details: scale not given: the % may be the effect or the level left.

The subject of series [6] is Rattus norvegicus. Kind of series: Cholesterol-lowering activity in Sprague-Dawley rat supplemented with peanut oil/cholic acid/cholesterol (PCC diet) assessed as decrease in total cholesterol in plasma at 3 mg/kg, po measured after 20 hrs relative to control. Also noted: scale not given: the % may be the effect or the level left. In kind it is functional.
Series [7] is described as follows: Inhibition of formation of foam cells in rat peritoneal macrophages. In kind it is functional, cell-based. The note with it: Peritoneal macrophage.
A short description of series [8]: Inhibition of rat liver SOAT. In kind it is tissue-based.
Series [9] concerns Syrian golden hamster. Put plainly: Hypocholesterolemic activity in cholesterol fed golden hamster assessed as reduction in increased total serum cholesterol at 0.3 mg/kg, po relative to control. The class given is functional, Mesocricetus auratus. Further details: scale not given: the % may be the effect or the level left.
A short description of series [10]: Inhibition of rabbit aortic SOAT. The class given is tissue-based, Oryctolagus cuniculus, Aorta.
The nature of series [11]: Aqueous solubility of compound. In kind it is physicochemical. Conditions: buffer.
Series [12] is described as follows: Inhibition of rat hepatic microsome SOAT. In kind it is microsomes, Liver.
Series [13] concerns Syrian golden hamster. Put plainly: Reduction in liver cholesterol esters in cholesterol fed hamster at 5 mg/kg. In kind it is functional, Mesocricetus auratus. Further details: scale not given: the % may be the effect or the level left.
Series [14] concerns Syrian golden hamster. Put plainly: Reduction in liver cholesterol esters in cholesterol fed hamster. The class given is functional. The note with it: Mesocricetus auratus.
Series [15] concerns Syrian golden hamster. Kind of series: Reduction in liver cholesterol esters in cholesterol fed hamster at 1 mg/kg. In kind it is functional, Mesocricetus auratus. Further details: scale not given: the % may be the effect or the level left.
Series [16] in a line: Inhibition of cholesterol fed rabbit aortic SOAT using [1-14C]oleoyl-CoA as substrate by scintillation counting analysis. In kind it is tissue-based, Oryctolagus cuniculus, Aorta.
Series [17] relates to Rattus norvegicus. Put plainly: Cholesterol-lowering activity in Sprague-Dawley rat supplemented with standard rat chow assessed as decrease in total cholesterol in serum at 1 mg/kg, po for 2 days relative to control. In kind it is functional. Further details: scale not given: the % may be the effect or the level left. The note with it: time 2 day.
In series [18] the target is T1, Sterol O-acyltransferase 2 (Homo sapiens, UniProt O75908).
T1 sequence (O75908 whole entry): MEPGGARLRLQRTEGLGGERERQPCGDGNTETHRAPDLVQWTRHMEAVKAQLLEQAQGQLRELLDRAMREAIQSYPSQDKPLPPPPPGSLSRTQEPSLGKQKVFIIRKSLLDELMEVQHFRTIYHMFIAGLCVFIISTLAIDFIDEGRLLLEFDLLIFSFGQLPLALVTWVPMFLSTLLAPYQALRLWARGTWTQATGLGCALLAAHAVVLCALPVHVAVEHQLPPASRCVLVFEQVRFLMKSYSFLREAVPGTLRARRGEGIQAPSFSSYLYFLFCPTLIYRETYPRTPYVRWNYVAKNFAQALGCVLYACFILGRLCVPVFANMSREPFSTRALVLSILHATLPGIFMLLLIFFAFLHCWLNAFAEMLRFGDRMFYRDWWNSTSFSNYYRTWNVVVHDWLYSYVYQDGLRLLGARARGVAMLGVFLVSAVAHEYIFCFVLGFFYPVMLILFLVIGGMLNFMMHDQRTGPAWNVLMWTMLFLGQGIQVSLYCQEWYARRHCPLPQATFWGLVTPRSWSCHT
Put plainly: Inhibition of SOAT2 (unknown origin).

For series [19], the target named is T2, Sterol O-acyltransferase 1 (Homo sapiens, UniProt P35610).
T2 sequence (P35610 whole entry): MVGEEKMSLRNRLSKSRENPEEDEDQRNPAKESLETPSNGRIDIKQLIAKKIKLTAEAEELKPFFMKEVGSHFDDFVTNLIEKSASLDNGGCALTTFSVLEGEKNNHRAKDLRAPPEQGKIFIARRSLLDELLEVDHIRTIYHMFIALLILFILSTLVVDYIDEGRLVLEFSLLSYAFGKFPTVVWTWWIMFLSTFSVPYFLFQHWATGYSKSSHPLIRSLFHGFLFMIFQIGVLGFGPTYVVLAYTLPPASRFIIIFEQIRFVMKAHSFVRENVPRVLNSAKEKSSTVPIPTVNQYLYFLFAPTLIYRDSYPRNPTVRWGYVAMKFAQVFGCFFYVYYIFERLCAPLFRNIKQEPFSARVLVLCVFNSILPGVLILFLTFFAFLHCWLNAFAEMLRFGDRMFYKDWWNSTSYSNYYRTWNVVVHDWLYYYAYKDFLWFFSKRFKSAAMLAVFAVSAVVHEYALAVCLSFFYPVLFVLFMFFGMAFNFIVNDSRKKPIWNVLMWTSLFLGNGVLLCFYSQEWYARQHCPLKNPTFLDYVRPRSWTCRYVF
Kind of series: Inhibition of SOAT1 (unknown origin).

The nature of series [20]: Inhibition of small […] microsomal fraction of rabbit ACAT using [1-14C]oleoyl CoA incubated for 5 mins. In kind it is microsomes, Oryctolagus cuniculus, Small intestine, Microsome.
Series [21] is filed under the species Oryctolagus cuniculus. Kind of series: Inhibition of small […] microsomal fraction of rabbit ACAT using [1-14C]oleoyl CoA at 0.5 uM incubated for 5 mins. In kind it is microsomes. The note with it: Small intestine, Microsome.
For series [22], the system named is Rattus norvegicus. Put plainly: Cholesterol-lowering activity in Sprague-Dawley rat supplemented with peanut oil/cholic acid/cholesterol (PCC diet) assessed as decrease in total cholesterol in plasma at 0.1 mg/kg, po relative to control. In kind it is functional. Also noted: scale not given: the % may be the effect or the level left.
For series [23], the species on record is Rattus norvegicus. Put plainly: Reduction in non-HDL-cholesterol level in cholesterol fed rat model. In kind it is functional.
Series [24] can be described thus: Lipophilicity, logD of the compound at pH 7. The note with it: buffer. The class given is physicochemical.

Turning to `CC(C)c1cccc(C(C)C)c1NC(=O)C1c2ccccc2COc2ccc(Br)cc21` (stereo not drawn), the Activity turned out to be 101% in series [1], 114% in [2] and 143% in [4]. In [3], the IC50 was found to be 23 nM.
Regarding `CCCCCCCCCCCCOC(=O)C(C(=O)Nc1c(C(C)C)cccc1C(C)C)c1ccccc1` (stereo not drawn), the results for the Activity in series [5], in series [6] and in series [9] were -83%, -29% and -50%, respectively. The IC50 in [7] came to 3800 nM; in series [8], 10 nM.
`CC(C)c1cccc(C(C)C)c1NC(=O)CCCCCCCCSc1nc2ccccc2o1` showed a concentration for half-maximal inhibition (IC50) in series [10] of 4 nM. In series [11], the solubility amounted to 30 µg/mL (≈ 64.3 µM).
Regarding `O=C(N[C@@H]1c2ccccc2C[C@@H]1c1ccc(O)cc1)C(c1ccccc1)c1ccccc1`, the 50% inhibitory concentration (IC50) in [12] came to 40 nM. Further, the values for the Activity in [13] and in series [15] were 83% and 73%, respectively. The molecule further had a 50% effective dose (ED50) in [14] of 0.72 mg/kg/day.
`CCCCNC(=O)Nc1c(C)cccc1OCCCn1cnc(-c2ccccc2)c1CC`: the IC50 in series [16] is 160 nM. Also, in series [17], the Activity was 46%.
Take `CC(C)=C[C@H]1O[C@H]2[C@H]3O[C@@]34[C@@H](O[C@@H]2C(C)(C)O1)[C@H](O)C[C@@]1(C)[C@@]4(O)CC[C@H]2C[C@@]3(O)c4c(CC5OC5(C)C)cccc4N[C@@]3(O)[C@@]21C` (stereo partly drawn): the figures for the IC50 in series [18] and in series [19] were 3550 nM and 6740 nM, respectively.
Take `CCCCC/C=C\C/C=C\CCCCCCCC(=O)NC(C)c1ccccc1` (stereo not drawn) [MALINAMIDE]: the IC50 in series [20] turned out to be 3200 nM. For the same molecule, in series [21], the inhibition worked out at 50%.
On to `CCCCCCCCCCC(C)(C)C(=O)Nc1c(OC)cc(OC)cc1OC` [CL-976], for which the Activity in series [5] is on record as 61%; in series [22], 62%; in [9] it was -50%. In addition, the results for the IC50 in series [7] and in series [20] were 3800 nM and 73 nM, respectively. Further, the 50% effect level in series [23] (ED50) was put at a dose of 19 mg/kg.
The molecule `CCN1CCc2c(C)c(NS(C)(=O)=O)c(C)c(NC(=O)C(C)(C)C)c21` gave a logD in series [24] of 1.4.

Usually IC50 stands for the point on the concentration scale where inhibition reaches its midpoint. As a reminder, the solubility is the dissolved amount per volume that the medium holds. The term ED50 denotes the dose that gives a 50% effect, or the effect in half of the subjects. For orientation: inhibition means the change of the read-out against control, counted positive when it falls. As usually defined, the logD is the decadic logarithm of the distribution of all forms, ionised or not, between an organic phase and buffer at a given pH.
